Laboratory results taken from the supplement of paper PMC11061612.

Legend:
AZD7648 = compound: Cc1cc2ncnn2cc1Nc1ncc2c(n1)n(C1CCOCC1)c(=O)n2C [AZD7648]; conditions: max 10 µM
In short: (§1)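 Viability was measured with CellTiter-Glo 2.0 luminescence after 72 hours of dosing at a final DMSO of typically 0.2%, and scaled between blank-well and DMSO-well means. Beforehand, cancer cell lines sat 24 hours at 37°C and 5% CO2 in 1536-well plates in 7.5 μl DMEM/F12 or RPMI with 10% FBS. A non-linear mixed effects model fitted two-parameter logistic curves to the dose responses. The single-agent IC50 comes from these fits.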

Gefitinib = compound: COc1cc2ncnc(Nc3ccc(F)c(Cl)c3)c2cc1OCCCN1CCOCC1 [Gefitinib]; conditions: max 10 µM
In short: as §1

AZD1390 = compound: CC(C)n1c(=O)n(C)c2cnc3cc(F)c(-c4ccc(OCCCN5CCCCC5)nc4)cc3c21 [AZD1390]; conditions: max 0.3 µM
In short: as §1

AZD6738 = compound: C[C@@H]1COCCN1C2=NC(=NC(=C2)C3(CC3)[S@](=N)(=O)C)C4=C5C=CNC5=NC=C4 [AZD6738]; conditions: max 10 µM
In short: as §1

Savolitinib = compound: C[C@@H](c1ccc2nccn2c1)n1nnc2ncc(-c3cnn(C)c3)nc21 [Savolitinib]; conditions: max 1 µM
In short: as §1

Doxorubicin = compound: COc1cccc2c1C(=O)c1c(O)c3c(c(O)c1C2=O)C[C@@](O)(C(=O)CO)C[C@@H]3O[C@H]1C[C@H](N)[C@H](O)[C@H](C)O1 [Doxorubicin]; conditions: max 1 µM
In short: as §1

Olaparib = compound: O=C(c1cc(Cc2n[nH]c(=O)c3ccccc23)ccc1F)N1CCN(C(=O)C2CC2)CC1 [Olaparib]; conditions: max 10 µM
In short: as §1

Selumetinib = compound: Cn1cnc2c(F)c(Nc3ccc(Br)cc3Cl)c(C(=O)NOCCO)cc21 [Selumetinib]; conditions: max 10 µM
In short: as §1

Prexasertib = compound: COc1cccc(OCCCN)c1-c1cc(Nc2cnc(C#N)cn2)n[nH]1 [Prexasertib]; conditions: max 1 µM
In short: as §1

Paclitaxel = compound: CC(=O)O[C@H]1C(=O)[C@@]2(C)[C@H]([C@H](OC(=O)c3ccccc3)[C@]3(O)C[C@H](OC(=O)[C@H](O)[C@@H](NC(=O)c4ccccc4)c4ccccc4)C(C)=C1C3(C)C)[C@]1(OC(C)=O)CO[C@@H]1C[C@@H]2O [Paclitaxel]; conditions: max 3 µM
In short: as §1

Gemcitabine = compound: Nc1ccn([C@@H]2O[C@H](CO)[C@@H](O)C2(F)F)c(=O)n1 [Gemcitabine]; conditions: max 0.3 µM
In short: as §1

Carboplatin = compound: C1CC(C1)(C(=O)[O-])C(=O)[O-].N.N.[Pt+2] [Carboplatin]; conditions: max 10 µM
In short: as §1

Alisertib = compound: COc1cc(Nc2ncc3c(n2)-c2ccc(Cl)cc2C(c2c(F)cccc2OC)=NC3)ccc1C(=O)O [Alisertib]; conditions: max 10 µM
In short: as §1

AZD0156 = compound: CN(C)CCCOc1ccc(-c2ccc3ncc4c(c3c2)n(C2CCOCC2)c(=O)n4C)cn1 [AZD0156]; conditions: max 3 µM
In short: as §1

[1] = compound: O=C(Nc1ccc2[nH]nc(-c3ccncc3)c2c1)[C@@H]1CCN(CC(=O)N2CCN(c3ccc(-c4ncccn4)cc3)CC2)C1; conditions: max 5 µM
In short: as §1

Trametinib = compound: CC(=O)Nc1cccc(-n2c(=O)n(C3CC3)c(=O)c3c(Nc4ccc(I)cc4F)n(C)c(=O)c(C)c32)c1 [Trametinib]; conditions: max 1 µM
In short: as §1

AZD4320 = compound: CN(CC[C@H](CSC1=CC=CC=C1)NC2=C(C=C(C=C2)S(=O)(=O)NC(=O)C3=CC=C(C=C3)N4CCC(CC4)[C@H](C5=CC=CC=C5C6=CC=C(C=C6)Cl)O)S(=O)(=O)C(F)(F)F)CCO [AZD4320]; conditions: max 1 µM
In short: as §1

SRA737 = compound: N#Cc1cnc(Nc2cc(NC[C@H]3CNCCO3)c(C(F)(F)F)cn2)cn1 [SRA737]; conditions: max 10 µM
In short: as §1

SN-38 = compound: CCc1c2c(nc3ccc(O)cc13)-c1cc3c(c(=O)n1C2)COC(=O)[C@]3(O)CC [SN-38]; conditions: max 0.3 µM
In short: as §1

AZD5363 = compound: C1CN(CCC1(C(=O)N[C@@H](CCO)C2=CC=C(C=C2)Cl)N)C3=NC=NC4=C3C=CN4 [AZD5363]; conditions: max 10 µM
In short: as §1

Lapatinib = compound: CS(=O)(=O)CCNCc1ccc(-c2ccc3ncnc(Nc4ccc(OCc5cccc(F)c5)c(Cl)c4)c3c2)o1 [Lapatinib]; conditions: max 10 µM
In short: as §1

AZD5991 = compound: Cc1c2c(nn1C)CSCc1cc(n(C)n1)CSc1cc(c3ccccc3c1)OCCCc1c(C(=O)O)n(C)c3c-2c(Cl)ccc13 [AZD5991]; conditions: max 1 µM
In short: as §1

SG3199 = compound: CC1=CN2[C@@H](C1)C=NC3=CC(=C(C=C3C2=O)OC)OCCCCCOC4=C(C=C5C(=C4)N=C[C@@H]6CC(=CN6C5=O)C)OC [SG3199]; conditions: max 0.001 µM
In short: as §1

5-Fluorouracil = compound: O=c1[nH]cc(F)c(=O)[nH]1 [5-Fluorouracil]; conditions: max 20 µM
In short: as §1

AZD1775 = compound: C=CCn1c(=O)c2cnc(Nc3ccc(N4CCN(C)CC4)cc3)nc2n1-c1cccc(C(C)(C)O)n1 [AZD1775]; conditions: max 3 µM
In short: as §1

Taselisib = compound: Cc1nc(-c2cn3c(n2)-c2ccc(-c4cnn(C(C)(C)C(N)=O)c4)cc2OCC3)n(C(C)C)n1 [Taselisib]; conditions: max 10 µM
In short: as §1

Etoposide = compound: COc1cc([C@@H]2c3cc4c(cc3[C@@H](O[C@@H]3O[C@@H]5CO[C@@H](C)O[C@H]5[C@H](O)[C@H]3O)[C@H]3COC(=O)[C@H]23)OCO4)cc(OC)c1O [Etoposide]; conditions: max 10 µM
In short: as §1

AZD8186 = compound: C[C@@H](Nc1cc(F)cc(F)c1)c1cc(C(=O)N(C)C)cc2c(=O)cc(N3CCOCC3)oc12 [AZD8186]; conditions: max 10 µM
In short: as §1

Palbociclib = compound: CC(=O)c1c(C)c2cnc(Nc3ccc(N4CCNCC4)cn3)nc2n(C2CCCC2)c1=O [Palbociclib]; conditions: max 10 µM
In short: as §1

Crizotinib = compound: C[C@@H](Oc1cc(-c2cnn(C3CCNCC3)c2)cnc1N)c1c(Cl)ccc(F)c1Cl [Crizotinib]; conditions: max 10 µM
In short: as §1

MK-2206 = compound: NC1(c2ccc(-c3nc4ccn5c(=O)[nH]nc5c4cc3-c3ccccc3)cc2)CCC1 [MK-2206]; conditions: max 10 µM
In short: as §1

Venetoclax = compound: CC1(C)CCC(CN2CCN(c3ccc(C(=O)NS(=O)(=O)c4ccc(NCC5CCOCC5)c([N+](=O)[O-])c4)c(Oc4cnc5[nH]ccc5c4)c3)CC2)=C(c2ccc(Cl)cc2)C1 [Venetoclax]; conditions: max 1 µM
In short: as §1

AZD5153 = compound: COc1nnc2ccc(N3CCC(c4ccc(OCCN5CCN(C)C(=O)[C@H]5C)cc4)CC3)nn12 [AZD5153]; conditions: max 1 µM
In short: as §1

AZD2811 = compound: CCN(CCO)CCCOc1ccc2c(Nc3cc(CC(=O)Nc4cccc(F)c4)[nH]n3)ncnc2c1 [AZD2811]; conditions: max 1 µM
In short: as §1

Dasatinib = compound: CC1=C(C(=CC=C1)Cl)NC(=O)C2=CN=C(S2)NC3=CC(=NC(=N3)C)N4CCN(CC4)CCO [Dasatinib]; conditions: max 2 µM
In short: as §1

| Cell Line | IC50, cell viability 72 h (AZD7648) | IC50, cell viability 72 h (Gefitinib) | IC50, cell viability 72 h (AZD1390) | IC50, cell viability 72 h (AZD6738) | IC50, cell viability 72 h (Savolitinib) | IC50, cell viability 72 h (Doxorubicin) | IC50, cell viability 72 h (Olaparib) | IC50, cell viability 72 h (Selumetinib) | IC50, cell viability 72 h (Prexasertib) | IC50, cell viability 72 h (Paclitaxel) | IC50, cell viability 72 h (Gemcitabine) | IC50, cell viability 72 h (Carboplatin) | IC50, cell viability 72 h (Alisertib) | IC50, cell viability 72 h (AZD0156) | IC50, cell viability 72 h [1] | IC50, cell viability 72 h (Trametinib) | IC50, cell viability 72 h (AZD4320) | IC50, cell viability 72 h (SRA737) | IC50, cell viability 72 h (SN-38) | IC50, cell viability 72 h (AZD5363) | IC50, cell viability 72 h (Lapatinib) | IC50, cell viability 72 h (AZD5991) | IC50, cell viability 72 h (SG3199) | IC50, cell viability 72 h (5-Fluorouracil) | IC50, cell viability 72 h (AZD1775) | IC50, cell viability 72 h (Taselisib) | IC50, cell viability 72 h (Etoposide) | IC50, cell viability 72 h (AZD8186) | IC50, cell viability 72 h (Palbociclib) | IC50, cell viability 72 h (Crizotinib) | IC50, cell viability 72 h (MK-2206) | IC50, cell viability 72 h (Venetoclax) | IC50, cell viability 72 h (AZD5153) | IC50, cell viability 72 h (AZD2811) | IC50, cell viability 72 h (Dasatinib) |
| --- | --- | --- | --- | --- | --- | --- | --- | --- | --- | --- | --- | --- | --- | --- | --- | --- | --- | --- | --- | --- | --- | --- | --- | --- | --- | --- | --- | --- | --- | --- | --- | --- | --- | --- | --- |
| IM-9 (Non-Cancerous) | > 10 µM | > 10 µM | > 300 nM | 1.04 µM | > 1000 nM | 52.8 nM | > 10 µM | 0.218 µM | 12.4 nM | 4.97 nM | 1.97 nM | > 10 µM | 0.0265 µM | > 3000 nM | 0.0727 µM | 6.11 nM | 769 nM | 1520 nM | 2.53 nM | 6.7 µM | 7.53 µM | 667 nM | > 1 nM | 5.02 µM | 205 nM | > 10000 nM | 97.4 nM | > 10 µM | 4.92 µM | 0.819 µM | > 10 µM | > 1000 nM | 89.4 nM | 71.3 nM | > 2000 nM |
| EB2 (Burkitt's Lymphoma) | > 10 µM | > 10 µM | > 300 nM | 1.63 µM | > 1000 nM | 29.7 nM | > 10 µM | > 10 µM | 7.8 nM | 30.1 nM | 13.8 nM | > 10 µM | 7.23 µM | > 3000 nM | > 5 µM | > 1000 nM | > 1000 nM | 1030 nM | 4.03 nM | 3.27 µM | > 10 µM | > 1000 nM | > 1 nM | > 20 µM | 348 nM | 2020 nM | 198 nM | 4.92 µM | > 10 µM | 6.78 µM | 3.04 µM | > 1000 nM | 348 nM | > 1000 nM | 494 nM |
| JHU-022 (Oral Cavity Carcinoma) | > 10 µM | 0.811 µM | > 300 nM | > 10 µM | > 1000 nM | 505 nM | > 10 µM | 5.56 µM | 94.4 nM | 2090 nM | 278 nM | > 10 µM | > 10 µM | > 3000 nM | 2.72 µM | 219 nM | > 1000 nM | > 10000 nM | 35.7 nM | > 10 µM | 1.93 µM | > 1000 nM | > 1 nM | > 20 µM | 1640 nM | 515 nM | > 10000 nM | > 10 µM | > 10 µM | > 10 µM | > 10 µM | > 1000 nM | > 1000 nM | > 1000 nM | 431 nM |
| LU-165 (Small Cell Lung Carcinoma) | > 10 µM | > 10 µM | > 300 nM | > 10 µM | > 1000 nM | > 1000 nM | > 10 µM | > 10 µM | 220 nM | > 3000 nM | > 300 nM | > 10 µM | > 10 µM | > 3000 nM | > 5 µM | > 1000 nM | > 1000 nM | > 10000 nM | > 300 nM | > 10 µM | > 10 µM | > 1000 nM | > 1 nM | > 20 µM | 2940 nM | > 10000 nM | > 10000 nM | > 10 µM | > 10 µM | > 10 µM | > 10 µM | > 1000 nM | > 1000 nM | > 1000 nM | > 2000 nM |
| JHH-2 (Hepatocellular Carcinoma) | > 10 µM | > 10 µM | > 300 nM | 6.8 µM | > 1000 nM | > 1000 nM | > 10 µM | > 10 µM | 57.5 nM | 365 nM | > 300 nM | > 10 µM | > 10 µM | > 3000 nM | 3.44 µM | 181 nM | > 1000 nM | > 10000 nM | 77.6 nM | 4.77 µM | > 10 µM | > 1000 nM | > 1 nM | > 20 µM | 1860 nM | 3050 nM | > 10000 nM | 0.297 µM | > 10 µM | > 10 µM | 5.26 µM | > 1000 nM | > 1000 nM | > 1000 nM | 188 nM |
